Experimental data reported in publication PMC9674830, “A glutamine-based single α-helix scaffold to target globular proteins” (Nature Communications, 2022).
Like-named read-outs stand apart in the source and are kept apart here. Blank lines part the entries; values can stand above or below the compound they belong to. Starred links: 1 amine or outer side, 2 acyl side, 3 side chain; linkers in the order of their positions; H or OH if unused. Positions of bridges follow the written chain, without caps; N, C: chain ends. Non-standard residues stand in square brackets, D forms with d. Residues, ends and D or L forms follow the SMILES beside them. No end group written: not given here. ξ: configuration not given here. ξαMeNle(6-ylidene) = CC(CCCC=[*:3])(N[*:1])C(=O)[*:2]

How the values were obtained:
RAP74-CTD = target: T1, RAP74-CTD (Homo sapiens, UniProt P35269); test: NMR chemical shift perturbation titration of peptides into 15N RAP74-CTD (KD); type: binding; details: 298 K, pH 7.4; for Kd: 1H-15N BEST-TROSY CSP titration, 15N RAP74-CTD 50 μM, read-out: NMR-derived KD; for KD range in words: NMR CSP titration, RAP74-CTD 50 μM
T1 construct: spanning residues 450-517; His6-MBP (with TEV site) (N, cleaved yes); made in house; host or cells: E. coli Rosetta (DE3)pLysS
T1 sequence (P35269 450-517): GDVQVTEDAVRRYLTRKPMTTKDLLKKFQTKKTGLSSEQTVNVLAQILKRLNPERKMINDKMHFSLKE
Description: Recombinant samples with ^15N isotope enrichment of the C-terminal domain of subunit 1 of the general transcription regulator TFIIF (RAP74-CTD), spanning residues 450-517, were obtained as described previously. A codon-optimized synthetic gene cloned in a pDONR221 vector was obtained from GeneArt (Thermo Fisher Scientific, Waltham, MA, USA) and subcloned into a pDEST-His6MBP vector obtained from Addgene. Rosetta (DE3)pLysS competent cells (Novagen, Merck KGaA, Darmstadt, Germany) were grown in MOPS medium with ^15NH4Cl as the only nitrogen source (310 K, induction at OD600 = 0.7, 1 mM IPTG, harvesting 3 h after induction). Soluble fractions of cell lysates from sonication in lysis buffer (50 mM Tris-HCl, 1 M NaCl, 10 mM imidazole, pH 8.0) were purified by IMAC, and fractions containing the His6MBP-TEV-RAP74-CTD fusion were dialyzed at 277 K overnight against cleavage buffer (50 mM Tris-HCl, 200 mM NaCl, 0.5 mM EDTA, pH 8.0) in the presence of TEV protease (50 μg/mL). A second IMAC step was performed and the flow-through containing the RAP-CTD was loaded onto a HiTrap SP HP cation exchange column followed by a size exclusion chromatography step on a Superdex 75 GL 10/300 column equilibrated with NMR buffer (20 mM sodium phosphate, 0.1% trifluoroacetic acid, pH 7.4), both mounted in an Äkta Purifier System (GE Healthcare, Chicago, IL, USA). The sample was concentrated to 100 μM using an Amicon Ultra 15 mL centrifugal filter (Merck KGaA, Darmstadt, Germany).
Before the experiment, both the protein and the peptide were dialyzed (277 K, two dialysis steps) in the same preparation of NMR buffer (20 mM sodium phosphate, 0.1% trifluoroacetic acid, pH 7.4), using a Pur-A-Lyzer (Sigma-Aldrich, Burlington, MA, USA) and a Micro Float-A-Lyzer (Spectrum Laboratories, San Francisco, CA, USA) respectively. The chemical shift assignment of RAP74-CTD was reported previously (BMRB code 27288). Averaged ^1H and ^15N chemical shift perturbations (CSPs) were calculated as:2 ΔδAV=(Δδ1H)^2+1/5Δδ15N^2
Dissociation constants, KD, and averaged CSP amplitude, Δδmax, for δ, δstpl, γ and γstpl peptide binding to RAP74-CTD were obtained by a global fitting (nonlinear regression) of the 10% peaks with the largest averaged CSPs to the following single-site binding model (1:1 stoichiometry):3 Δδ=Δδmax([Protein]+[Peptide]+KD)−([Protein]+[Peptide]+KD)^2−4[Protein][Peptide]/2[Protein]

[1] = Peptide stability in human serum; type: in vitro ADME; details: for peptide in human serum over time, mean / remaining at 0.08 h, 300 μM / remaining at 0.25 h, 300 μM / remaining at 0.5 h, 300 μM / remaining at 1 h, 300 μM / remaining at 4 h, 300 μM / remaining at 6 h, 300 μM / remaining at 8 h, 300 μM / remaining at 24 h, 300 μM: SD, human serum, mean; for peptide in human serum over time, mean: in % (unit assumed); for remaining at 0.08 h, 300 μM: Time 0.08 (time unit inferred); for remaining at 0.08 h, 300 μM / remaining at 0.25 h, 300 μM / remaining at 0.5 h, 300 μM / remaining at 1 h, 300 μM / remaining at 4 h, 300 μM / remaining at 6 h, 300 μM / remaining at 8 h, 300 μM / remaining at 24 h, 300 μM: read-out: peptide in human serum over time, mean; for remaining at 0.25 h, 300 μM: Time 0.25 (time unit inferred); for remaining at 0.5 h, 300 μM: Time 0.50 (time unit inferred); for remaining at 1 h, 300 μM: Time 1.00 (time unit inferred); for remaining at 4 h, 300 μM: Time 4.00 (time unit inferred); for remaining at 6 h, 300 μM: Time 6.00 (time unit inferred); for remaining at 8 h, 300 μM: Time 8.00 (time unit inferred); for remaining at 24 h, 300 μM: Time 24.00 (time unit inferred); for half-life at 300 μM: human serum (Sigma-Aldrich), 1.5 mM peptide in 20 mM sodium phosphate pH 7.4 diluted 1:9, final 300 μM, 310 K, 24 h, methanol precipitation, HPLC peak area of intact peptide vs t = 0, three independent replicates
Description: Supplementary Figure 2 | Stability in human serum and internalization in human cells of peptides (P3-7)3 and (P3-7)3 Ctrl. a Human serum stability assay of peptides (P3-7)3, (P3-7)3 Ctrl and Angiopep-2 (sequence:
, a positive control for this assay 1), measured at increasing time points by monitoring the area of the HPLC peak corresponding to the intact peptide over the area of the same peak at t = […]
Peptide stability in human serum
1.5 mM solutions of the P(3-7)3, P(3-7)3 Ctrl and Angiopep-2 peptides were prepared as detailed above in 20 mM sodium phosphate, pH 7.4 and diluted in human serum (Sigma-Aldrich, Burlington, MA, USA) (1:9 dilution) to a final concentration of 300 μM. The incubation was performed at 310 K for 24 h, taking aliquots of 50 μL at several time points.
These samples were treated with 400 μL of methanol to precipitate the serum proteins and centrifuged for 30 min at 277 K. The supernatant was filtered and analyzed by HPLC to calculate the percentage of intact peptide in the sample. HPLC chromatograms were obtained on an Agilent 1260 Infinity II system with a PDA detector, with an Agilent Poroshell 120-EC18 (50 x 3 mm x 2.7 μm) column. The flow rate was 1 mL min-1 and acetonitrile (1% TFA) and water (1% TFA) were used as solvents, with 4 minute linear gradients from 5 % to 95 % of acetonitrile thermostated at 313 K. […]

[2] = Time 0.00 (time unit not given)

Compound: SAAASSSWHTLFTAEEGQLYG [WHTLF, reference compound]
Kd (RAP74-CTD; lower bound): > 1 mM

Compound: KKPGASAAAAQAAQAAQAAQAAQAAQAAKKY [(P3-7)3 Ctrl]
peptide in human serum over time, mean [1, 2]: 100.26 | remaining at 0.08 h, 300 μM [1]: 96.4% | remaining at 0.25 h, 300 μM [1]: 97.3% | remaining at 0.5 h, 300 μM [1]: 114% | remaining at 1 h, 300 μM [1]: 115% | remaining at 4 h, 300 μM [1]: 94.5% | remaining at 6 h, 300 μM [1]: 115% | remaining at 8 h, 300 μM [1]: 98.4% | remaining at 24 h, 300 μM [1]: 110% | half-life at 300 μM [1]: > 1440 min

Compound: KKPGASLAALQALQALQALQALQAAQAAKKY [(P3-7)3]
Kd (RAP74-CTD; lower bound): > 1 mM | remaining at 0.08 h, 300 μM [1]: 113% | remaining at 0.25 h, 300 μM [1]: 120% | peptide in human serum over time, mean ([1]; Time 0.50 (time unit not given)): 137.50 | peptide in human serum over time, mean ([1]; Time 1.00 (time unit not given)): 122.97 | peptide in human serum over time, mean ([1]; Time 4.00 (time unit not given)): 139.36 | remaining at 6 h, 300 μM [1]: 103% | remaining at 8 h, 300 μM [1]: 86.3% | peptide in human serum over time, mean ([1]; Time 24.00 (time unit not given)): 128.28 | half-life at 300 μM [1]: > 1440 min

Compound: C[C@@H](O)[C@H](N)C(=O)N[C@@H](Cc1ccccc1)C(=O)N[C@@H](Cc1ccccc1)C(=O)N[C@@H](Cc1ccc(O)cc1)C(=O)NCC(=O)NCC(=O)N[C@@H](CO)C(=O)N[C@@H](CCCNC(=N)N)C(=O)NCC(=O)N[C@@H](CCCCN)C(=O)N[C@@H](CCCNC(=N)N)C(=O)N[C@@H](CC(N)=O)C(=O)N[C@@H](CC(N)=O)C(=O)N[C@@H](Cc1ccccc1)C(=O)N[C@@H](CCCCN)C(=O)N[C@H](C(=O)N[C@@H](CCC(=O)O)C(=O)N[C@@H](CCC(=O)O)C(=O)N[C@@H](Cc1ccc(O)cc1)C(=O)O)[C@@H](C)O [Angiopep-2, reference compound]
peptide in human serum over time, mean [1, 2]: 100.01 | remaining at 0.08 h, 300 μM [1]: 52% | remaining at 0.25 h, 300 μM [1]: 72.6% | remaining at 0.5 h, 300 μM [1]: 32.2% | remaining at 1 h, 300 μM [1]: 73.3% | remaining at 4 h, 300 μM [1]: 24.9% | remaining at 6 h, 300 μM [1]: 16.7% | remaining at 8 h, 300 μM [1]: 18.3% | remaining at 24 h, 300 μM [1]: 22.5%

Continued, values first:

Kd (RAP74-CTD; lower bound): > 1 mM
Compound: KKPGASAAAAQEAQLAQLAQELQAAQAAKKY [δctrl]

KD range in words (RAP74-CTD): mid-micromolar range
Compound: KKPGASLSWLQLFQEEQAAQAAKK [γ]

KD range in words (RAP74-CTD): mid-micromolar range
Compound: CC(C)C[C@@H]1NC(=O)[C@H](CCC(N)=O)NC(=O)C(C)(NC(=O)[C@H](Cc2c[nH]c3ccccc23)NC(=O)[C@H](CO)NC(=O)[C@H](C)NC(=O)[C@H](CO)NC(=O)[C@H](C)NC(=O)CNC(=O)[C@@H]2CCCN2C(=O)[C@H](CCCCN)NC(=O)[C@@H](N)CCCCN)CCCC=CCCCC(C)(C(=O)N[C@@H](CCC(=O)O)C(=O)N[C@@H](CCC(=O)O)C(=O)N[C@@H](CCC(N)=O)C(=O)N[C@@H](C)C(=O)N[C@@H](C)C(=O)N[C@@H](CCC(N)=O)C(=O)N[C@@H](C)C(=O)N[C@@H](C)C(=O)N[C@@H](CCCCN)C(=O)N[C@@H](CCCCN)C(=O)O)NC(=O)[C@H](Cc2ccccc2)NC1=O (stereo partly drawn) [γStpl]

Kd (RAP74-CTD; 20 mM sodium phosphate, 0.1% TFA, global fit of 10% peaks with largest CSPs, 1:1 model, error by Monte-Carlo): 0.131 ± 0.02 mM
Compound: KKPGASLAALQELQLLQLLQELQAAQAAKKY [δ]

KD range in words (RAP74-CTD): millimolar range
Compound: CC(C)C[C@@H]1NC(=O)[C@H](CCC(N)=O)NC(=O)C(C)(NC(=O)[C@H](CCC(=O)O)NC(=O)[C@H](CCC(N)=O)NC(=O)[C@H](C)NC(=O)[C@H](C)NC(=O)[C@H](C)NC(=O)[C@H](C)NC(=O)[C@H](CO)NC(=O)[C@H](C)NC(=O)CNC(=O)[C@@H]2CCCN2C(=O)[C@H](CCCCN)NC(=O)[C@@H](N)CCCCN)CCCC=CCCCC(C)(C(=O)N[C@@H](CC(C)C)C(=O)N[C@@H](C)C(=O)N[C@@H](CCC(N)=O)C(=O)N[C@@H](CCC(=O)O)C(=O)N[C@@H](CC(C)C)C(=O)N[C@@H](CCC(N)=O)C(=O)N[C@@H](C)C(=O)N[C@@H](C)C(=O)N[C@@H](CCC(N)=O)C(=O)N[C@@H](C)C(=O)N[C@@H](C)C(=O)N[C@@H](CCCCN)C(=O)N[C@@H](CCCCN)C(=O)N[C@@H](Cc2ccc(O)cc2)C(=O)O)NC(=O)[C@H](C)NC1=O (stereo partly drawn) [δStpl] (H-KKPGASAAAAQE[ξαMeNle(6-ylidene)]QLA[ξαMeNle(6-ylidene)]LAQELQAAQAAKKY-OH; staple 13-17; N-terminus and C-terminus assumed)

Kd (RAP74-CTD; lower bound): > 1 mM
Compound: KKPGASASWAQLFQEEQAAQAAKK [γCtrl]
